This is an account of results in publication PMC6372667 (Experimental & Molecular Medicine, 2019).

Where two headings read alike, the source gives them in different places.

One data set deals with T1, horse serum BChE (Equus caballus, UniProt P81908).
T1 construct: horse serum BChE (EC 3.1.1.8); purchased Sigma-Aldrich Co; host or cells: horse serum
The data set is described as follows: In vitro cholinesterase enzyme assay (Ellman), BChE. The class given is biochemical. The text has this:
BACE1 (human recombinant β-secretase) ([…]) and the BACE1 FRET (fluorescence resonance energy transfer) assay kit Red were purchased from ThermoFisher Scientific (P2985; Waltham, MA, USA). […] For the cell culture experiment, Dulbecco’s modified Eagle’s medium (DMEM), Opti-MEM, fetal bovine serum (FBS), and penicillin/streptomycin were obtained from Capricorn Scientific (Ebsdorfergrund, Germany). β-secretase inhibitor III (β-SI) was purchased from Calbiochem (Darmstadt, Germany). The protease inhibitor mixture (a mixture of AEBSF, pepstatin A, E-64, bestain, leupeptin, and aprotinin) was purchased from Sigma-Aldrich (St. Louis, MO, USA). Enzyme-linked immunosorbent assay (ELISA) kits for Aβ40 and Aβ42 were obtained from IBL (Kunma, Japan). All chemicals and solvents used were reagent grade, purchased from commercial sources, and used as received.
The inhibitory activities of pterosin derivatives against cholinesterases were measured using the method developed by Ellman et al.[32]. The reaction mixture contained 140 μL of sodium phosphate buffer (pH 8.0), 20 μL of test sample solution (final concentration of the compound 100 μM), and 20 μL of AChE or BChE solution, mixed and incubated for 15 min at room temperature. […] The reactions were initiated following the addition of 10 μL of DTNB and 10 μL of acetyl thiocholine iodide for the AChE assay or butyryl thiocholine chloride for the BChE assay in 96-well microplates, which were incubated for 15 min.
On the technique in general: DTNB colorimetry detects thiols as they appear.

The nature of another data set: in vitro. The class given is in vitro ADME. Particulars: for BBB permeation class: classified by Pe, given in words. As to the method:
PAMPA (parallel artificial membrane permeation assay) was used as a high-throughput assay to predict BBB permeation. Porcine polar brain lipid (PBL) was used as an artificial membrane to predict BBB permeation. Initially, the test compound was dissolved in DMSO at 5 mg/mL. This compound stock solution (10 µL) was diluted 200-fold in a universal buffer at pH 7.4 and mixed with a multi 8-channel pipette to obtain the secondary stock solution (final concentration 25 µg/mL). The secondary stock solution (200 µL) was placed in the donor wells. The filter membrane was coated with PBL in dodecane (4 mL volume of 20 mg/mL PBL in dodecane), and 5 µL of BBB-1 lipid solution was spread on PBL by pipette. The acceptor well was filled with […] of Acceptor Sink Buffer. The acceptor filter plate was cautiously positioned on the donor plate to assemble a “sandwich” (comprising an aqueous acceptor, artificial lipid membrane and aqueous donor with test compound on the top, middle and bottom, respectively). The test compound diffuses from the donor well to the acceptor well through the lipid membrane. After 4 h of incubation at pH 7.4 and 25 °C, the concentration of the compound in the acceptor, donor, reference and blank wells was estimated with a UV plate reader, Epoch Microplate Spectrophotometer (BioTek Instruments, Inc., Winooski, VT, USA). […] Samples were analyzed in quadruplets, and the average of the four runs was reported. To monitor the consistency of the analysis set, quality control standards were run with each sample set.
PAMPA-BBB, an in vitro artificial membrane permeability assay for the BBB, is one of the most reliable physicochemical screening tools in the early stage discovery of CNS-targeted drugs. The PAMPA-BBB system models the transcellular passive diffusion of chemicals across the BBB and measures strictly passive transport mechanisms via an artificial lipid membrane on effective permeability (Pe, cm/s).

The next data set has as its system B16F10 mouse melanoma. In words: MTT cytotoxicity assay, B16F10. The class given is cell-based. To be noted: 24 h. As to the method:
Cytotoxicity was assessed using the MTT assay. Briefly, the cells were seeded into a 96-well plate at a density of 1×10^5 cells per well in 100 µL of corresponding media and incubated at 37 °C in an incubator under 5% CO2 tension for 24 h. The culture media were then replaced with 100 µL of fresh serum-free media in the presence of varied concentrations of pterosin derivatives, and cells were incubated for an additional 24 h. The control was treated with an equal amount of DMSO present in the assay for a 5 mM concentration. Then, 100 µL of MTT solution (0.5 mg/mL in Phosphate Buffered Saline (PBS)) was added to each culture. To measure the proportion of surviving cells, the media were replaced with 100 µL of DMSO 2 h after the administration of MTT solution. The absorbance was measured at 570 nm using a spectrophotometric plate reader (Molecular Devices, Sunnyvale, CA, USA).
A general note: Tetrazolium dyes change colour on reduction, which living cells bring about.

For a further data set, the target named is T2, Electric eel AChE (Electrophorus electricus, UniProt O42275).
T2 construct: purchased Sigma-Aldrich Co
T2 sequence (O42275 24-633): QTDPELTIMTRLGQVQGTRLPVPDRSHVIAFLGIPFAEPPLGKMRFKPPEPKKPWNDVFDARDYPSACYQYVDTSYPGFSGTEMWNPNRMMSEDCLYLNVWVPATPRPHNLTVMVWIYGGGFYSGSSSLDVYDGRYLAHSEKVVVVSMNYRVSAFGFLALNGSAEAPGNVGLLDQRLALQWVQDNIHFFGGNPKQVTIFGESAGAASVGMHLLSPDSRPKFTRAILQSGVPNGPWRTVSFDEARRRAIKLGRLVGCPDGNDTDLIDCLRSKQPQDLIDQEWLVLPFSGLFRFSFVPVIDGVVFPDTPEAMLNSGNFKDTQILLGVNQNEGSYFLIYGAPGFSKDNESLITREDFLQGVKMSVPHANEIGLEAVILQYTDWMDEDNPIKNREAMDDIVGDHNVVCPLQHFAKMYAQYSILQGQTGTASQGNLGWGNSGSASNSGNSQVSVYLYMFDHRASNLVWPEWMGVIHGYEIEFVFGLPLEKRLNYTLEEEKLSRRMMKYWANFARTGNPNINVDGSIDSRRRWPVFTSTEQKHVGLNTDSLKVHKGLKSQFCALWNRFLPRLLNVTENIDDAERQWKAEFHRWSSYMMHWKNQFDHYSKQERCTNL
In words: In vitro cholinesterase enzyme assay (Ellman), AChE. The class given is biochemical.

In data set [1] the target is BACE1 (human recombinant β-secretase) (Homo sapiens, UniProt P56817). The data set is described as follows: Kinetic analysis of BACE1 inhibition (Dixon and Lineweaver−Burk plots). The class given is biochemical. To be noted: for Inhibition type BACE1: Dixon and Lineweaver−Burk plots. As to the method: The Ki was determined by interpretation of the Dixon plot, with the value of the x-axis intercept taken as −Ki.
BACE1 (human recombinant β-secretase), sequence (P56817 46-501): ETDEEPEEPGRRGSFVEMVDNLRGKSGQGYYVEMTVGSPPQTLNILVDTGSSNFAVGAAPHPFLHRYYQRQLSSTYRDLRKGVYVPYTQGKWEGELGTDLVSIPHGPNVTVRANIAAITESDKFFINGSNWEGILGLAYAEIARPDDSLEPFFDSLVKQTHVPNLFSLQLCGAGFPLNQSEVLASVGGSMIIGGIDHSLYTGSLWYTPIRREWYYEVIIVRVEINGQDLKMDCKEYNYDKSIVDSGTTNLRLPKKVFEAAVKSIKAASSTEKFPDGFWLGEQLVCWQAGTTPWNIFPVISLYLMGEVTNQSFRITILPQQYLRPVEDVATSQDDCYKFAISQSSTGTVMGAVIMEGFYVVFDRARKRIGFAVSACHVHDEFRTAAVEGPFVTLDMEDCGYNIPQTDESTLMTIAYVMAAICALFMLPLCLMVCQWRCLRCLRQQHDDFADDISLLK
Dixon plots for BACE1 inhibition by pterosin derivatives.
Dixon plots for BACE1 inhibition by pteroside derivatives.

T1 sequence (P81908 whole entry): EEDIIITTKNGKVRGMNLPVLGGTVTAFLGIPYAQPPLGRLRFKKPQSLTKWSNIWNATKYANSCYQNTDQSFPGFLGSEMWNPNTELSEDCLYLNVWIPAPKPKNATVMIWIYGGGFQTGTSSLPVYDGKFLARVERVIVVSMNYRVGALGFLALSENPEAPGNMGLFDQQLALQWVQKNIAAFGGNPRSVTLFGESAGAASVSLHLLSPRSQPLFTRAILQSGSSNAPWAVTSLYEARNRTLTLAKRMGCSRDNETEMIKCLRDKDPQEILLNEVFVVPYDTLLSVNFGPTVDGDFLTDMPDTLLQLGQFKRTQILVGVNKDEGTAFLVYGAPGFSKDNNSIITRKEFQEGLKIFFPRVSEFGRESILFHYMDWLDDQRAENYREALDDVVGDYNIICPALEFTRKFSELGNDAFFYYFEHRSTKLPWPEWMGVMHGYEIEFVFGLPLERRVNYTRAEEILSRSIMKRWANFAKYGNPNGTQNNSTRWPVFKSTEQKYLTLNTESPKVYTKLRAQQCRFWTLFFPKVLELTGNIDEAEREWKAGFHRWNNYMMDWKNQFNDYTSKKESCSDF

Consider `Cc1cc2c(c(C)c1CCO)C(=O)[C@H](C)C2` [(2R)-Pterosin B, (2R)-pterosin B], for which the IC50 – broadly, the concentration needed to halve the response being measured – on horse serum BChE came to 48.1 ± 0.59 µM. For the same molecule, the “BChE-inhibitory activity fold lower than berberine” value on horse serum BChE (ratio of IC50) is around 15 fold. Further, in “in vitro” (PAMPA-BBB), the “Pe fold higher than verapamil” value turned out to be 1.7 fold and the BBB permeation class result is given as “high BBB permeation”. Also, in the data set “in vitro” (from log Pe −4.22 versus literature log Pe of quercetin), the “Pe fold higher than quercetin” value is listed as “approximately 600 fold”. For the same molecule, the “Pe fold higher than berberine” value in the data set “in vitro” (from log Pe −4.22 versus log Pe −5.8 of berberine) is “approximately 37 fold”. Further, the Papp at 4 h, 25 µg/mL in the data set “in vitro” (pig, PAMPA, 4 h, pH 7.4, 25 °C, mean ± SD of quadruple experiments, read-out: PAMPA-BBB permeability Pe) is 60.3 ± 9.8 ×10⁻⁶ cm/s. In the data set on B16F10 mouse melanoma, the “LD50 Based on MTT Assay, B16F10” value is reported as >5,000 µM. For the same molecule, the IC50 on Electric eel AChE came out at 16.2 ± 1 µM. Moreover, the “AChE-inhibitory activity fold lower than berberine” value at Electric eel AChE (ratio of IC50) is “approximately 40 fold”. Besides, in data set [1], the Ki – broadly, the equilibrium dissociation constant of an inhibitor or competing ligand from its target – came out at 38.3 µM and the “Inhibition type BACE1” value is listed as “Noncompetitive”.

As to `Cc1cc2c(c(C)c1CCOC1OC(CO)C(O)C(O)C1O)C(=O)C(C)C2O` [(2R,3R)-Pteroside C, (2R,3R)-pteroside C], the IC50 came out at 5.29 ± 0.82 µM at horse serum BChE (mean ± S.D. of three experiments, read-out: IC50 BChE) and 3.77 ± 0.38 µM on Electric eel AChE (mean ± S.D. of three experiments, read-out: IC50 AChE). For the same molecule, the BBB permeation class entry in the data set “in vitro” (PAMPA-BBB) was “very low BBB permeability”. In addition, the “LD50 Based on MTT Assay, B16F10” value with B16F10 mouse melanoma is listed as >5,000 µM. The “Inhibition type BACE1” value in data set [1] is on record as “Mixed-type”. Also, in data set [1] (determined by Dixon plot, read-out: Ki BACE1), the Ki was determined as 12.6 µM.
